The values that follow are results of earlier work, collected in patent US9387185B2, “N-ω-hydroxy-L-arginine derivatives for the treatment of diseases” (Christian-Albrechts-Universität Zu Kiel, priority 2009, dated 2016).

One data set concerns the target T1, arginase I (Homo sapiens, UniProt P05089).
T1 sequence (P05089 1-322): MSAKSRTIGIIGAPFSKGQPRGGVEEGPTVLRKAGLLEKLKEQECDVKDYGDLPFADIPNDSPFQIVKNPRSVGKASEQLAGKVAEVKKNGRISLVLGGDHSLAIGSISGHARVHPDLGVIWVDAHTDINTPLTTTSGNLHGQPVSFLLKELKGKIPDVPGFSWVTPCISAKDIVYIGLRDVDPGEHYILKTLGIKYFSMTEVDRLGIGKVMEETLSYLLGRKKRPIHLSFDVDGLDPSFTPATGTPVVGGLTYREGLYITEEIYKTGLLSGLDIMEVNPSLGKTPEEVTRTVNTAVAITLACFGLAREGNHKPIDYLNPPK

Another data set has as its system rats. Particulars: i.v.

As to `N=C(NO)NCCC[C@H](N)C(=O)O` [NOHA, N^ω-hydroxy-L-arginine], on arginase I, the inhibition constant (Ki) was 30 to 42 µM. Besides, the “effects for treating the erectile dysfunction, endothelial dysfunction and hypertension” value in the data set on rats was “desired effects for treating the erectile dysfunction, endothelial dysfunction and hypertension could already be demonstrated”.

One may read the Ki as the equilibrium dissociation constant of an inhibitor or competing ligand from its target.
